A word on the viability: it is a read-out of living cells in per cent, often relative to untreated cells.

The nature of the series: in vitro. The settings on record: human, hela cells, % viability.
Turning to `Cc1ccc(S(=O)(=O)N2CCCCC2CO)cc1` (stereo not drawn) [CBK051142], the viability at 28.5 h, 10 µM was found to be 114%.

Turning to `COc1ccc(CCN(C)C(=O)CCCc2cc3ccccc3[nH]2)cc1OC` [CBK051152], the viability at 28.5 h, 10 µM turned out to be 93.7%.

Turning to `COc1ccc([C@@]23CC[C@@H](NC(=O)Nc4ccc(-c5csnn5)cc4)C[C@@H]2N(C)CC3)cc1OC` [CBK051163T], the viability at 28.5 h, 10 µM is 95.3%. Turning to `CC(C)c1nsc(NS(=O)(=O)Cc2ccccc2)n1` [CBK051188], the viability at 28.5 h, 10 µM was found to be 112%.

`CC(=O)Nc1nc(C)c(S(=O)(=O)Nc2nc(C(C)C)ns2)s1` [CBK051227]: the viability at 28.5 h, 10 µM stood at 90.9%. For `CC(C)(C)c1ccc(S(=O)(=O)N2CCNC(=O)C2)cc1` [CBK051238], the viability at 28.5 h, 10 µM worked out at 88.9%.

On to `CCOC(=O)C1CCN(S(=O)(=O)c2ccc(C(C)(C)C)cc2)CC1` [CBK051240], for which the viability at 28.5 h, 10 µM was determined as 83.5%. Regarding `CC(C)c1nsc(NS(=O)(=O)c2cc(OCC(F)(F)F)ccc2OCC(F)(F)F)n1` [CBK051262], the viability at 28.5 h, 10 µM stood at 106%. Regarding `CC(C)c1nsc(NS(=O)(=O)c2cc(C(F)(F)F)cc(C(F)(F)F)c2)n1` [CBK051263], the viability at 28.5 h, 10 µM worked out at 84.9%.

With `COc1ccc([C@@]23CC[C@@H](NC(=O)Nc4cccc(S(=O)(=O)C(F)(F)F)c4)C[C@@H]2N(C)CC3)cc1OC` [CBK051275T], the viability at 28.5 h, 10 µM was 99%. On to `O=S(=O)(c1ccc(Br)cc1F)N1CCCCC1CO` (stereo not drawn) [CBK051302], for which the viability at 28.5 h, 10 µM amounted to 92.9%.

Take `Cc1nc(S(=O)(=O)Nc2nc(C(C)C)ns2)cn1C` [CBK051323]: the viability at 28.5 h, 10 µM was found to be 107%. As for `CN(C)CC1CCCCN1S(=O)(=O)c1ccc(C(C)(C)C)cc1` (stereo not drawn) [CBK051347], the viability at 28.5 h, 10 µM was determined as 108%. As for `CC(=O)c1cnc2cc(-c3ccc(Cl)cc3)nn2c1C` [CBK051484], the viability at 28.5 h, 10 µM turned out to be 107%. `O=C(c1nn2c(C(F)(F)F)cc(-c3ccccc3)nc2c1Cl)N1CCOCC1` [CBK051498]: the viability at 28.5 h, 10 µM was 90.4%. For `COc1ccc(CCN2CCC(CNC(=O)NCc3ccccc3)CC2)cc1OC` [CBK051511T] the value was 92.3%; for `O=S(=O)(c1ccc(OC(F)(F)F)cc1)N1CCCCC1CO` (stereo not drawn) [CBK051527], 91.7%.

Regarding `COc1ccc([C@@]23CC[C@@H](NC(=O)Nc4ccc(F)c(F)c4)C[C@@H]2N(C)CC3)cc1O` [CBK051630], the viability at 28.5 h, 10 µM was 88.3%. For `CS(=O)(=O)NCC1(c2ccccc2)CCN(S(=O)(=O)c2c(Cl)cccc2Cl)CC1` [CBK051633], the viability at 28.5 h, 10 µM was found to be 89.9%. For the molecule `Cc1cc(F)c(S(N)(=O)=O)cc1NC(=O)CN1CCOCC1` [CBK051649C], the viability at 28.5 h, 10 µM turned out to be 104%. Take `COc1ccc([C@@]23CC[C@@H](NC(=O)Nc4ccc(F)c(C#N)c4)C[C@@H]2N(C)CC3)cc1OC` [CBK051659T]: the viability at 28.5 h, 10 µM was determined as 84%. `c1ccc(Cn2ccc3c(N4CCNCC4)nccc32)cc1` [CBK051672C]: the viability at 28.5 h, 10 µM is 87.9%. Under `COc1ccccc1-c1cc2c(=O)n(C)c(-c3ccc(CNC(C)C)cc3)cc2o1` [CBK051699C] stands 84.5%; under `C=CCSc1nc2ccccc2c(=O)n1CCc1ccccc1` [CBK055285], 81.9%. For `O=C(O)CCCN1C(=O)c2ccccc2C1=O` [CBK056635] the value was 91.7%. Take `CCOC(=O)c1nc(N)oc1C` [CBK056636]: the viability at 28.5 h, 10 µM stood at 85.3%. As for `C#CCN1CC[C@]2(c3ccc(OC)c(OC)c3)CC[C@@H](NC(=O)Nc3ccc(F)c(F)c3)C[C@H]12` [CBK056657], the viability at 28.5 h, 10 µM came to 104%. `COc1ccc([C@@]23CC[C@@H](NS(=O)(=O)Cc4ccccc4)C[C@@H]2N(C)CC3)cc1OC` [CBK056665T]: the viability at 28.5 h, 10 µM was 91.4%. For `COc1ccc([C@@]23CCCN(C(=O)Nc4ccc(SC(F)(F)F)cc4)C[C@@H]2N(C)CC3)cc1OC` [CBK056681T] the value was 92.2%; for `CC(C)(C)OC(=O)NC1CCC(NCc2ccccc2Br)CC1` (stereo not drawn) [CBK056684], 91.5%. Regarding `CC(C)(C)OC(=O)NC1CCC(NCc2ccncc2)CC1` (stereo not drawn) [CBK056688], the viability at 28.5 h, 10 µM amounted to 98.8%.

Consider `CC(C)(C)OC(=O)NC1CCC(NCc2cc(F)cc(F)c2)CC1` (stereo not drawn) [CBK056689], for which the viability at 28.5 h, 10 µM was 91.3%. Consider `CC(C)(C)OC(=O)NC1CCC(NCc2c[nH]c(-c3ccccc3)n2)CC1` (stereo not drawn) [CBK056692], for which the viability at 28.5 h, 10 µM was found to be 80.9%. Turning to `COc1ccccc1CNCCNC(=O)OC(C)(C)C` [CBK056694], the viability at 28.5 h, 10 µM was 105%. For the molecule `CC(C)(C)OC(=O)NCCNCc1cc(F)cc(F)c1` [CBK056698], the viability at 28.5 h, 10 µM was 90.3%. Take `COc1ccccc1CNCc1ccc(CNC(=O)OC(C)(C)C)cc1` [CBK056702]: the viability at 28.5 h, 10 µM is 100%. On to `CC(C)(C)OC(=O)NCc1ccc(CNCc2ccccc2C(F)(F)F)cc1` [CBK056703], for which the viability at 28.5 h, 10 µM worked out at 92.2%. Turning to `CC(C)(C)OC(=O)NCc1ccc(CNCc2cccc(Cl)c2)cc1` [CBK056704], the viability at 28.5 h, 10 µM came to 108%. `CC(C)(C)OC(=O)NCc1ccc(CNCc2cc(F)cc(F)c2)cc1` [CBK056707]: the viability at 28.5 h, 10 µM turned out to be 107%. With `COc1ccccc1CNCC1CCN(C(=O)OC(C)(C)C)CC1` [CBK056710], the viability at 28.5 h, 10 µM came to 96.4%. For `COc1ccc(F)c(CNCC2CCN(C(=O)OC(C)(C)C)CC2)c1` [CBK056716] the value was 95.9%; for `O=C(Nc1ccc(C(F)(F)F)cc1)N(Cc1ccc2ccccc2c1)CC1CCNCC1` [CBK056720], 88.9%. As to `Cc1noc(C)c1NC(=O)N(Cc1ccc(-c2ccccc2)cc1)CC1CCNCC1` [CBK056721], the viability at 28.5 h, 10 µM amounted to 100%. As for `Cn1c(C(=O)NCCN2CCOCC2)cc2oc(-c3ccccc3)nc2c1=O` [CBK056726T], the viability at 28.5 h, 10 µM turned out to be 87.8%. For `COc1ccc([C@@]23CC[C@@H](NS(=O)(=O)c4ccc5ccccc5c4)C[C@@H]2N(C)CC3)cc1OC` [CBK056848T], the viability at 28.5 h, 10 µM came to 96.8%.

For the molecule `COc1ccc([C@@]23CC[C@@H](NC(=O)Nc4ccc(Cl)c(F)c4)C[C@@H]2N(C(C)C)CC3)cc1OC` [CBK056852T], the viability at 28.5 h, 10 µM is 99.2%. Consider `CCOc1ccc(NCc2ccccc2NS(=O)(=O)c2ccc(C)cc2)cc1` [CBK056876], for which the viability at 28.5 h, 10 µM turned out to be 93.6%. With `Cc1ccc(S(=O)(=O)Nc2ccccc2C(N)=O)cc1` [CBK056893], the viability at 28.5 h, 10 µM was 76%. With `O=C(NCn1nnc2ccccc21)c1ccccc1` [CBK056950], the viability at 28.5 h, 10 µM is 93.6%. `Cc1nc(C(F)(F)F)ccc1NC(=O)CSCC(=O)O` [CBK056975]: the viability at 28.5 h, 10 µM is 93.3%. On to `O=C(CCN1CCOCC1)Nc1cc(Cl)cc(Cl)c1` [CBK057021], for which the viability at 28.5 h, 10 µM was determined as 119%. Regarding `Nc1ccccc1C(=O)NCc1ccncc1` [CBK057024], the viability at 28.5 h, 10 µM stood at 90.1%. Under `Cc1cc(NCn2nnc3ccccc32)ccc1Br` [CBK057031] stands 88.2%. `O=C(NC1CCN(Cc2c(F)cccc2Cl)CC1)c1cccs1` [CBK057035]: the viability at 28.5 h, 10 µM is 100%. Turning to `Cc1ccc(SCC(=O)Nc2cc(C)on2)cc1` [CBK057070], the viability at 28.5 h, 10 µM was found to be 115%.

As to `COC(=O)c1ccsc1NC(=O)CN1CCNCC1` [CBK057080], the viability at 28.5 h, 10 µM amounted to 88.5%. Consider `O=C(O)C1CCC1C(=O)N1CCN(c2nc3ccc(Cl)cc3s2)CC1` (stereo not drawn) [CBK057108], for which the viability at 28.5 h, 10 µM worked out at 92.4%. Regarding `O=C(NCc1sccc1Cl)Nc1cccc(Cl)c1` [CBK057110], the viability at 28.5 h, 10 µM amounted to 92.4%. As for `Cn1nc(NC(=O)COCC(=O)O)c2ccccc21` [CBK057114], the viability at 28.5 h, 10 µM was 98.8%. For `Cn1nc(NC(=O)CC(C)(C)CC(=O)O)c2c(F)cccc21` [CBK057122] the value was 86.3%; for `Cc1nc(C(F)(F)F)ccc1C(=O)N1C=CC(C(F)(F)F)=NCC1` [CBK057187], 113%; for `CSc1cccc(NC(=O)NCCN2CCNC2=O)c1` [CBK057191], 103%. Regarding `O=S(=O)(Nc1ccc(C(F)(F)F)cc1Cl)c1cc(Br)c(Cl)s1` [CBK057196], the viability at 28.5 h, 10 µM was 78.9%. As for `O=C(NCC(O)c1ccccc1)Nc1ccccc1` (stereo not drawn) [CBK057227], the viability at 28.5 h, 10 µM came out at 95.2%. For `Cc1cc(C(=O)Nc2ccccc2N2CCOCC2)c(C)o1` [CBK057243], the viability at 28.5 h, 10 µM is 111%. On to `Cc1oc(C(C)(C)C)cc1C(=O)Nc1ccc(C(F)(F)F)cc1` [CBK057251], for which the viability at 28.5 h, 10 µM was determined as 87%. Consider `O=C(O)CSCC(=O)N1CCN(c2ccc(F)cc2)CC1` [CBK057269], for which the viability at 28.5 h, 10 µM came out at 98%. Under `CCOc1ccccc1NC(=O)Nc1cccc(S(N)(=O)=O)c1` [CBK057282] stands 91.3%; under `COc1cc2c(cc1OC)C(C)N(S(=O)(=O)c1cn(C)cn1)CC2` (stereo not drawn) [CBK057314], 112%. For the molecule `O=C(O)C1CCN(C(=O)c2ccc3nsnc3c2)CC1` [CBK057344], the viability at 28.5 h, 10 µM turned out to be 99.8%.

In the case of `Cc1cc(C(=O)N(C)C2CCCCC2)no1` [CBK057375], the viability at 28.5 h, 10 µM is 113%.

In the case of `O=C(O)CCC(=O)NCC(=O)c1ccc(F)cc1` [CBK057384], the viability at 28.5 h, 10 µM worked out at 76.6%. With `O=S(=O)(NCC1COc2ccccc2O1)c1cc(Cl)sc1Cl` (stereo not drawn) [CBK057394], the viability at 28.5 h, 10 µM amounted to 85.4%.

As for `CC(C)c1ccc(NC(=O)C2=NNC(=O)CC2)cc1` [CBK057421], the viability at 28.5 h, 10 µM stood at 96.5%. As to `O=S(=O)(NCCc1c[nH]c2ccccc12)c1cccc2nsnc12` [CBK057456], the viability at 28.5 h, 10 µM amounted to 83.4%. Consider `CCOc1ccccc1NC(=O)NCCSCc1ccco1` [CBK057501], for which the viability at 28.5 h, 10 µM came to 94.5%. For `O=C(Nc1ccc2nonc2c1)N1CCOCC1` [CBK057530], the viability at 28.5 h, 10 µM came to 90.8%. For `Cn1ccnc1SCC(=O)Nc1ccc(I)cc1` [CBK057541], the viability at 28.5 h, 10 µM was 85.3%. As to `O=C(O)CSCC(=O)Nc1ccc(Cl)cn1` [CBK057543], the viability at 28.5 h, 10 µM amounted to 86.5%. Regarding `CC(C)SCC(=O)Nc1ccc(Br)cc1` [CBK057618], the viability at 28.5 h, 10 µM stood at 102%. Take `COc1ccc(NC(=O)c2cc(C(F)(F)F)cc(C(F)(F)F)c2)cn1` [CBK057634]: the viability at 28.5 h, 10 µM turned out to be 85.1%.

(Values after article PMC12040169 (PLOS Biology, 2025).)
